Test results taken from patent publication US7576224B2, “Insecticidal (dihalopropenyl) phenylalkyl substituted dihydrobenzofuran and dihydrobenzopyran derivatives” (FMC Corporation, priority 2003, dated 2009).

What was measured:
[1] = test system: cabbage looper (Trichoplusia ni [Hubner]); assay: Foliar treated test against cabbage looper (chick pea plants); type: in vivo; conditions: rate of application 30 ppm; foliage; 96 hour exposure
Text: (§1) Foliar Treated Test Against Tobacco Budworm and Cabbage Looper
(§2) Nine-to-ten day-old chick pea plants (Cicer arietinum) were sprayed at 15 psi to runoff on both upper and lower leaf surfaces with solutions of test compound to provide application rates as high as 1000 ppm of test chemical. The solvent used to prepare the solutions of test compound was 10% acetone or methanol (v/v) and 0.1% of the surfactant octylphenoxypolyethoxyethanol in distilled water. Four replicates, each containing one chick pea plant, for each rate of application of test compound were sprayed. The treated plants were transferred to a hood where they were kept until the spray had dried.
(§3) The four chick pea plants for each replicate treated with test compound as described above were removed from their pots by cutting the stems just above the soil line. The excised leaves and stems from the four plants in each replicate were placed in individual 237 mL (8-ounce) paper cups, which contained a moistened filter paper. Five second-instar (7 days old) tobacco budworms or cabbage loopers (7 days old) were counted into each cup, taking care not to cause injury. An opaque plastic lid was placed on each cup, which was then held in a growth chamber for a 96 hour exposure period at 25° C., 50% relative humidity and photo-period of 12 hours light and 12 hours dark. At the end of the 96 hour exposure period the cups were opened, and the numbers of dead, moribund, and live insects were counted. Using the insect counts, the efficacy of the test compound was expressed in percent control. Percent control is derived from the total number of dead insects (TD) plus the total number of moribund insects (TM) as compared to the total number of insects (TI) in the test:
(§4) The condition of the test plants was also observed for phytotoxicity and for reduction of feeding damage as compared to an untreated control.

[2] = test system: tobacco budworm (Heliothis virescens [Fabricius]); assay: Foliar treated test against tobacco budworm (chick pea plants); type: in vivo; conditions: rate of application 30 ppm; foliage; 96 hour exposure
Text: as §1, §2, §3, §4

[3] = Photostability (rate of photolysis, thin film on glass, Suntest CPS illuminator); type: physicochemical; conditions: for Percent of Compound 12 Half-life: relative photolysis half-life compared to compound 12; for Photolysis Half-life: thin film on glass coverslips, filtered xenon lamp, about 25° C.
Procedure: These tests were conducted in the following manner:
For each compound tested, three glass microscope coverslips (12 mm in diameter) for each illumination period (1, 3, 6, 12, and 24 hours) were spotted with 10 microliters of a one mg/mL acetonitrile or methanol solution of test compound. Three coverslips were also spotted with test compound and were not illuminated. The material on these non-illuminated coverslips was analyzed at the end of the experiment as described below to determine the test compound stability on glass. The solvents in each 10 microliter solution on each coverslip were allowed to evaporate leaving a thin film of test compound on each coverslip. Three of the coverslips representing the zero hour illumination period were then placed in a 20 mL scintillation vial. In the vial was placed one mL of acetonitrile, which extracted the test chemical from the coverslip. The solution was then transferred to a two-dram vial for analysis by HPLC. The average HPLC peak area generated by this sample defined the initial level of test compound. The remaining coverslips were then placed in the water-cooled chamber of the exposure platform of a Suntest CPS illuminator (Heraeus Instruments GmbH; Bereich Original Hanau, Hersaeusstrasse R-14, Postfach 1563, D-6450 Hanau 1). The exposure platform was covered with a quartz plate and maintained at about 25° C. for the duration of the test. The Suntest CPS illuminator employs a filtered xenon lamp, which provides illumination of a similar spectrum and intensity as sunlight. Three coverslips for each test compound were removed from the illuminator at 1, 3, 6, 12, and 24 hours of continuous illumination. Approximately eight hours of illumination is equivalent to one summer day at 40° N latitude. The three coverslips from each of the illumination periods were treated as described above and analyzed by HPLC. The average HPLC peak area from each of these illumination periods represents a diminished amount of test compound when compared to the initial level of test compound as determined from the zero hour illumination sample. The percents of test compound remaining from each of these illumination periods were used to generate a degradation curve from which a half-life in hours was determined for each test compound.

[4] = test system: Diamondback Moth (Plutella xylostella); assay: Foliar treated test against diamondback moth (cabbage leaf discs); type: in vivo; conditions: rate of application 30 ppm; foliage; 96 hour exposure
Procedure: Four replicates, each containing one cabbage leaf disc, for each rate of application of test compound were dipped. The four cabbage leaf discs for each replicate treated were immersed for five seconds in the solution of test compound as described above. Each discs was then placed in individual 50 mm Petrie dishes containing a filter paper 42.5 mm in diameter that had been moistened with 100 μL of water. The uncovered Petrie dishes were then set aside until the leaf discs were dry. After this time, two third-instar diamondback moth larvae (10-14 days old) were carefully placed on each leaf disc. A tight-fitting lid was then placed on each Petrie dish, which was which was then held in a growth chamber for a 96 hour exposure period at 25° C., 50% relative humidity and photo-period of 12 hours light and 12 hours dark. At the end of the 96 hour exposure period the Petrie dishes were uncovered, and the numbers of dead, moribund, and live insects were counted. Using the insect counts, the efficacy of the test compound was expressed in percent control by methods set forth above in tests against the tobacco budworm and cabbage looper.

[5] = test system: tobacco budworm (Heliothis virescens [Fabricius]); assay: Surface-treated diet test against tobacco budworm; type: in vivo; conditions: 0.25 millimolar on the surface of the diet, second instar larvae, five-day exposure; for Percent Growth Inhibition: insect weight relative to untreated controls
Text: Surface-Treated Diet Test Against Tobacco Budworm
The test compounds of formula I are identified by numbers that correspond to those in Table 1.

cabbage looper = assay: Whole plant foliar treated test against cabbage looper; type: in vivo, Trichoplusia ni; conditions: cabbage plants sprayed, 96 hour exposure; for Percent Control at 25 g: rate of application 25 g; for Percent Control at 50 g: rate of application 50 g; for Percent Control at 100 g: rate of application 100 g
Procedure: Whole Plant Foliar Treated Test Against Cabbage Looper
For each rate of application of test compound, a 15 mL aliquot of test solution was prepared. Sufficient test compound was dissolved in 1.5 mL of acetone to provide an application rate as high as 1000 grams/Ha. Each solution was then added to 13.5 mL of water containing 300 ppm of a surfactant. There were four replicates for each rate of application of test compound, and all tests included a known chemical standard as well as a standard of water and surfactant and untreated checks.
A maximum of 14 appropriately sized cabbage plants for each rate of application and replicate were arranged in a 28 pot plastic flat and sprayed with the 15 mL sample of test compound using an traveling boom sprayer equipped with a cone spray tip at a rate of 30 gallons/acre under a pressure of 40-44 psi. The untreated checks were sprayed first, followed by the test compounds and standards, all in order of lowest to highest rates of application. Once the spraying was complete, the test plants were allowed to air-dry on the conveyor on which they were sprayed.
For each rate of application and replication, sufficient Petrie dishes, 50×9 mm in size, were lined with filter paper disks and each were moistened with 0.5 mL of distilled water. From each replicate cabbage plant at least three 2.5 cm disks were cut Each leaf disk was then placed in an individual Petrie dishes with the adaxial side of the leaf facing up. Following placement of the leaf disks, two neonate cabbage looper larvae were placed on each disk. Upon completion of infestation each Petrie dish was covered and held in a growth chamber for a 96 hour exposure period at 25° C., 40%-60% relative humidity and photo-period of 12 hours light and 12 hours dark. At the end of the 96 hour exposure period the Petrie dishes were opened, and the numbers of dead, moribund, and live insects were counted. Using the insect counts, the efficacy of the test compound was expressed in percent control. Percent control is derived from the total number of dead insects (TD) plus the total number of moribund insects (TM) as compared to the total number of insects (TI) in the test:
[formula] The condition of the test plants was also observed for phytotoxicity and for reduction of feeding damage as compared to an untreated control.

SMILES	Percent Control CL (Cabbage Looper) [1] [%]	Percent Control TBW (Tobacco Budworm) [2] [%]	Percent of Compound 12 Half-life [3] [%]	Photolysis Half-life [3] [h]	Percent Control DBM (Diamondback Moth) [4] [%]	Percent Mortality [5] [%]	Percent Growth Inhibition [5] [%]	Percent Control at 25 g (cabbage looper) [%]	Percent Control at 50 g (cabbage looper) [%]	Percent Control at 100 g (cabbage looper) [%]
ClC(Cl)=CCOc1cc(Cl)c(OCCCCOc2cccc3ccoc23)c(Cl)c1 [Compound W]	20	62	58	11	60	–	–	–	–	–
CC1(C)Cc2cccc(OC(=O)NCCCOc3c(Cl)cc(OCC=C(Cl)Cl)cc3Cl)c2O1 [Compound 53, N-{3-[4-(3,3-dichloroprop-2-enyloxy)-2,6-dichlorophenoxy]propyl}(2,2-dimethyl(2,3-dihydrobenzo[2,3-b]furan-7-yloxy))-carboxamide]	–	–	–	–	–	100	100	–	–	–
Cc1cc2cccc(OCCCCOc3c(Cl)cc(OCC=C(Cl)Cl)cc3Cl)c2o1 [X]	50	96	32	6	85	–	–	8	8	13
ClC(Cl)=CCOc1cc(Cl)c(OCCCCOc2cccc3occc23)c(Cl)c1 [Z]	20	60	21	4	60	–	–	–	–	–
CC1(C)Cc2cc(C(F)(F)F)cc(OCCCCOc3c(Cl)cc(OCC=C(Cl)Cl)cc3Cl)c2O1 [Compound 20, 5-(3,3-dichloroprop-2-enyloxy)-2-{4-[2,2-dimethyl-5-(trifluoromethyl)(2,3-dihydrobenzo[2,3-b]furan-7-yloxy)]-butoxy}1,3-dichlorobenzene]	–	–	–	–	–	100	100	–	–	–
ClC(Cl)=CCOc1cc(Cl)c(OCCCCCc2cc3ccccc3o2)c(Cl)c1 [Y]	–	5	21	4	–	–	–	–	–	–
CC1(C)Cc2cccc(OCCCCOc3c(Cl)cc(OCC=C(Cl)Cl)cc3Cl)c2O1 [Compound 12, 5-(3,3-Dichloroprop-2-enyloxy)-2-[4-(2,2-dimethyl(2,3-dihydrobenzo[2,3-b]furan-7-yloxy))butoxy]-1,3-dichlorobenzene]	96	88	100	19	91	100	100	88	100	100
